The text below walks through data of patent US20220306585A1, “PYRAZOLE DERIVATIVES FOR CONTROLLING ARTHROPODS” (Bayer Animal Health GmbH, priority 2019, published 2022).

A word on the solubility: it is how much of the substance goes into solution per volume.

Molecules are shown by their SMILES. In brackets after ≈: the same amount, converted by molar mass.

The subject of data set [1] is Ctenocephalides felis adult. Nature of the data set: Antiparasitic activity after administration to rats: fleas. Type of data set: in vivo. The conditions noted are these: 11.97 mg/kg sc, Ctenocephalides felis adult. In a few lines:
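Compounds dissolved in glycerol formal, given i.p. or s.c. to rats, 5 per group. Infestation with 30 D. variabilis nymphs (days −2, 7, 14, 21, 28, 35) and 30 adult C. felis (days −1, 8, 15, 22, 29, 36), with counts on days 2, 9, 16, 23, 30, 37. Percent efficacy compares mean live attached ticks or live fleas with a placebo-treated group.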

Data set [2] can be described thus: Degradation of prodrugs and release of parent drug in dog plasma. Type of data set: in vitro ADME. The following applies: male, Beagle, dog plasma (EDTA stabilized), 37° C., percent area of prodrug at t0. As to the method: Measurement of Release of Parent Drug in Dog Plasma 1 mg of the test compound was dissolved in 0.5 mL acetonitrile/dimethylsulfoxide 9:1. For complete dissolution the HPLC vial was shaken and treated with ultrasound. 20 μL of this solution were added to 1 mL of dog plasma (Beagle, male; EDTA stabilized) under vortexing at a temperature of 37° C. Aliquots (100 μL each) were taken at 0.17, 0.5, 1, 1.5, 2 and 4 hours. Each aliquot was transferred to a vial containing 300 μL of acetonitrile/citric acid buffer pH 3 80:20. These solutions were centrifuged at 5000 rpm for 10 minutes. The supernatant was analysed by HPLC (Method 8) to determine the amount of the test compound. In addition, the reaction mixture was analysed by method 9 (HPLC-MS) at the final timepoint. Both decrease of the prodrug concentration and increase of parent drug concentration were monitored. All data is given as percent area of the prodrug at t0.

Data set [3] is described as follows: Evaluation of pharmacokinetics in vivo (rat). The conditions noted are these: concentration of Parent Drug A after admin. of the named substance. Here is the method: Evaluation of Pharmacokinetics (In Vivo) To evaluate the pharmacokinetics of test substances in vivo, these test substances are dissolved in appropriate formulation vehicles (ethanol, dimethyl sulfoxide, PEG400, glycerol formal etc.), or mixtures thereof. The test substances are then administered to rats or dogs intravenously, orally or subcutaneously. The intravenous application is performed as bolus. Administered doses range usually between 0.1 to 5 mg/kg, however, doses for subcutaneous and oral administration can exceed this range up to doses of 30 mg/kg. Blood samples are retrieved via a catheter, exsanguination or venous puncture in vials containing appropriate anticoagulants, such as lithium heparinate or potassium EDTA. Plasma is generated from the blood via centrifugation. Blood samples are taken over an appropriate time interval, usually lasting up to 144 h after administration. If necessary, samples from later time points can also be taken. If possible, time points are chosen so that the initial absorption phase, the maximum plasma concentration (Cmax), and exposure within a certain time interval (AUC(0-t))aer described. Furthermore, it is possible to also retrieve organ-, tissue- and urine samples. The quantitative measurement of the test substances in the samples is performed using calibration curves in the respective matrices. The protein content of the samples is precipitated using acetonitrile or methanol. Thereafter, the samples are separated using HPLC in combination with reversed phase chromatography columns. The HPLC system is coupled to a triple quadrupole mass spectrometer via an electrospray interface. The evaluation of the plasma concentration/time profiles are afterwards evaluated using a validated pharmacokinetics evaluation program. […] Relative bioavailability (Frel) was used to describe the exposure of parent drug after prodrug administration compared to the exposure of parent drug after direct administration of compound A which was normalised to 100%.

A short description of data set [4]: Degradation of prodrugs and release of parent drug in rat plasma. The class given is in vitro ADME. The conditions noted are these: male, Hannover-Janvier RjHan, rat plasma (Li-heparin), 37° C., percent area of prodrug at t0. Put shortly: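 Prodrug spiked into male Hannover rat Li-heparin plasma at 37 °C. Samples at 0.17–4 h quenched in acetonitrile/citric acid pH 3, then analysed by HPLC, with HPLC-MS at final time point. Prodrug loss and parent drug appearance given as percent area of prodrug at t0.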

Data set [5] is described as follows: Measurement of solubility in buffer at pH 6.5. The class given is physicochemical. The following applies: aqueous buffer, kinetic from dmso stock; PBS buffer pH 6.5, shaken 24 h at rt, LC-MSMS; read-out: Solubility of example compounds at pH 6.5. Put shortly: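 DMSO stock (50 g/L) diluted into PBS pH 6.5, nominal final […], shaken 24 h at rt. After centrifugation, supernatant concentration quantified by LC-MSMS against a 1.2–600 ng/mL calibration curve.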

With `N#CC1(N(COC(=O)/C=C/C(=O)O)C(=O)c2cc(-c3cnn(-c4c(Cl)cc(C(F)(C(F)(F)F)C(F)(F)F)cc4OC(F)(F)F)c3)ccc2Cl)CC1` [Example 13, (2E)-4-{[(2-Chloro-5-{1-[2-chloro-4-(1,1,1,2,3,3,3-heptafluoropropan-2-yl)-6-(trifluoromethoxy)phenyl]-1H-pyrazol-4-yl}benzoyl)(1-cyanocyclopropyl)amino]methoxy}-4-oxobut-2-enoic acid], in data set [1] (study day 2), the “In-vivo Efficacy SD2” value is 100%. Also, in data set [1] (study day 9), the “In-vivo Efficacy SD9” value is listed as 97%. The “In-vivo Efficacy SD16” value in data set [1] (study day 16) is reported as 96%. Further, in data set [1] (study day 23), the “In-vivo Efficacy SD23” value amounted to 79%. Moreover, in data set [1] (study day 30), the “In-vivo Efficacy SD30” value is given as 57%. The “In-vivo Efficacy SD37” value in data set [1] (study day 37) is 51%. The recovery at 0.17 h, 39 µg/mL worked out at 95% in data set [2] (0.17 h) and 96% in data set [4] (0.17 h). For the same compound, the recovery at 0.5 h, 39 µg/mL worked out at 79% in data set [2] (0.5 h) and 85% in data set [4] (0.5 h). Further, the recovery at 1 h, 39 µg/mL in data set [2] (1 h) was found to be 51%; in data set [4] (1 h) it was 63%. For the same compound, the recovery at 1.5 h, 39 µg/mL is 33% in data set [2] (1.5 h) and 49% in data set [4] (1.5 h). In addition, the figures for the recovery at 2 h, 39 µg/mL in data set [2] (2 h) and in data set [4] (2 h) were 18% and 35%, respectively. Besides, the recovery at 4 h, 39 µg/mL came to 0% in data set [2] (4 h) and 14% in data set [4] (4 h). The “AUC(0-144 h)norm of parent drug A” value in data set [3] (iv bolus) was 7.3 kg·h/L; in data set [3] (sc), 5.9 kg·h/L. The solubility at 24 h in data set [5] is 18 µg/mL (≈ 23.2 µM).
